Earlier results as cited in patent US20220192993A1, “DOSAGE FORMS AND METHODS OF PREPARATION AND USE THEREOF” (Willow Bark Brands, Inc., priority 2019, published 2022).

Tested on: brain alpha wave activity
Conditions: reported effect, 'testing shows'

CCNC(=O)CC[C@H](N)C(=O)O [L-Theanine]
brain alpha wave activity: L-Theanine increases
